Experimental findings from patent US11406709B2, “Therapeutic and research application of PDCL3” (TRUSTEES OF BOSTON UNIVERSITY, priority 2014, dated 2022) are described below.

For one assay, the target named is T1, PDCL3 (Homo sapiens, UniProt Q9H2J4).
T1 sequence (Q9H2J4 1-239): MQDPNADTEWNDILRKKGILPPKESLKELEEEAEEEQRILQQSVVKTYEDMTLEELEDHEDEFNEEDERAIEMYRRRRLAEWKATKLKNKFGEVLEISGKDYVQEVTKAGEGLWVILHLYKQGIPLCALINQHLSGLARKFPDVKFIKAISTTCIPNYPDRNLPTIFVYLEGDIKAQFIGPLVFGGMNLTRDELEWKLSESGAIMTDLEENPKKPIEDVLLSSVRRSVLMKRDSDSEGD
Kind of assay: High throughput screening of LOPAC1280 for small molecule inhibitors of PDCL3. As to conditions: LOPAC1280, 1,280 pharmacologically active compounds.
From the text: (§1) Given that PDCL3 plays a fundamental role in maturation and folding of receptor tyrosine kinases (RTKs), such as VEGFR-2, and considering that activity of these RTKs are cornerstone of tumor growth and metastasis, it was decided to screen for small molecule inhibitors that could antagonize PDCL3 function in tumor cells. LOPAC1280 (a library of Pharmacologically Active Compounds), which is a collection of 1,280 pharmacologically active compounds, was used. The library is most commonly used to validate new drug discovery assays and characterize orphan targets. 16 lead compounds were identified as PDCL3 inhibitors and their potency and efficacy in inhibition of PDCL3 was validated. The structures of these 16 lead compounds, namely, Reserpine, DAPH, AC-93253 iodide, Emodin, Sunitinib malate, GW2974, Urapidil Hydrochloride, Mecamylamine hydrochloride, (−)-MK-801 hydrogen maleate, AGK2, Tyrphostin AG 112, Tyrphostin 23, Tyrphostin 51, I-Ome-Tyrophostin AG 538, and Isoliquiritgenin are provided herein at FIG. 14B.
as §1, with “validated. […] Chemical formulas for” for “validated. The structures of”, “these compounds” for “these 16 lead compounds, namely, Reserpine, DAPH, AC-93253 iodide, Emodin, Sunitinib malate, GW2974, Urapidil Hydrochloride, Mecamylamine hydrochloride, (−)-MK-801 hydrogen maleate, AGK2, Tyrphostin AG 112, Tyrphostin 23, Tyrphostin 51, I-Ome-Tyrophostin AG 538, and Isoliquiritgenin”, “herein in” for “herein at”

Assay [1] relates to VEGFR-2. Kind of assay: Cycloheximide-chase / VEGF-induced downregulation of VEGFR-2. To be noted: PAE cells, cycloheximide 20 μg/ml, 90 min. Format: cell-based. On the procedure:
FIG. 2A. Illustrated is the schematic of treatment of cells with cycloheximide (CHX) and VEGF. PAE cells co-expressing VEGFR-2 with empty vector (pMSCV) or PDCL3 were incubated with CHX for 90 minutes followed by stimulation with VEGF for indicated times. Whole cell lysates was blotted for VEGFR-2 and loading control protein, PLCγ1. FIG. 2B. Shown are the quantification of the half-life of mature VEGFR-2 and pre-mature VEGFR-2 based on the VEGFR-2 blot from the panel FIG. 2A. FIGS. 2C-2D. PAE cells co-expressing VEGFR-2 with empty vector (pMSCV) or PDCL3 were stimulated with VEGF for indicated times and whole cell lysates were processed as panel FIG. 2A.
PAE cells expressing VEGFR-2 alone or together with PDCL3 were serum-starved for overnight followed by incubation of cells with serum-free DMEM medium containing cycloheximide (20 μg/ml, 90 min). Cells then were stimulated with VEGF for various times to downregulate cell surface VEGFR-2. Cells were lysed and whole cell lysates was blotted for VEGFR-2 using anti-VEGFR-2 antibody. For measuring half-life of PDCL3 and HA-tagged mutant PDCL3, cells were incubated with serum-free DMEM medium containing cycloheximide (20 μg/ml) for indicated times and cells were lysed and whole cell lysates was blotted for PDCL3.

For assay [2], the system named is VEGFR-2. Kind of assay: In vitro transcription/translation of VEGFR-2. In kind it is biochemical. On the procedure: FIG. 1A. HEK-293 cells expressing VEGFR-2 were transfected with different concentrations of C-terminus Myc-tagged PDCL3. After 48 hours cells were lysed and whole cell lysates (WCL) were blotted for VEGFR-2, PDCL3 and Hsp70 for loading control. Quantification of premature (newly synthesized and partially glycosylated VEGFR-2 corresponding to lower molecular weight) and mature (fully glycosylated) forms of VEGFR-2 is shown. Mean results of three independent experiments are shown. *P=0.04 and […]. FIG. 1B. Human umbilical vein endothelial cells (HUVECs) were transfected with control siRNA or PDCL3-siRNA. After 48 hours cells serum-starved for overnight followed by stimulation with VEGF for 10 minutes. Cells were lysed and whole cell lysates were blotted for phospho-Y1054-VEGFR-2, total VEGFR-2, PDCL3 and Hsp70 for loading control. FIG. 1C. Thermo-induced aggregation of VEGFR-2 was measured using PSA dye as described in the materials and method section. FIG. 1D. In vitro transcription/translation of VEGFR-2 in the absence or presence of exogenous recombinant PDCL3 was performed as described in the materials and method section and schematic of the procedure is shown. FIG. 1E. In vitro translated VEGFR-2 protein in the absence or presence of exogenous recombinant PDCL3 was blotted for VEGFR-2. FIG. 1F. […]

Structures can show the parent of a compound that is named as a salt. Residues, ends and D or L forms follow the SMILES beside them. *: point of attachment. Cbz = O=C(OCc1ccccc1)*

Turning to `CC[n+]1c(/C=C/C=C2/N(C)c3ccccc3C2(C)C)sc2ccccc21.[I-]` [AC-93253 iodide, 3-Ethyl-2-[(1E,3E)-3-(1,3,3-trimethyl-1,3-dihydro-2H-indol-2-ylidene)-1-propen-1-yl]-1,3-benzothiazol-3-ium iodide], the “identified as PDCL3 inhibitor / specifically targeting PDCL3” value at PDCL3 was “identified as specifically targeting PDCL3”.

As for `C[C@@H]1C[C@@H]([C@H](O)CC2CC(=O)NC(=O)C2)C(=O)[C@@H](C)C1` [Cycloheximide], in the assay with VEGFR-2 [1], the VEGFR-2 protein synthesis entry was “inhibited VEGFR-2 protein synthesis”.

For the molecule `COc1cc(C=C(C#N)C(=O)c2ccc(O)c(O)c2)cc(I)c1O` [I-Ome-Tyrophostin AG 538, α-Cyano-(3-methoxy-4-hydroxy-5-iodocinnamoyl)-(3′,4′-dihydroxyphenyl)ketone], the “identified as PDCL3 inhibitor / specifically targeting PDCL3” value at PDCL3 was “identified as specifically targeting PDCL3”.

With `Cc1cc(O)c2c(c1)C(=O)c1cc(O)cc(O)c1C2=O` [Emodin, 1,3,8-Trihydroxy-6-methyl-9,10-anthraquinone], the “identified as PDCL3 inhibitor / specifically targeting PDCL3” value on PDCL3 is “identified as specifically targeting PDCL3”.

In the case of `CCN(CC)CCNC(=O)c1c(C)[nH]c(/C=C2\C(=O)Nc3ccc(F)cc32)c1C.O=C(O)C[C@H](O)C(=O)O` [Sunitinib malate, (2S)-2-Hydroxysuccinic acid-N-[2-(diethylamino)ethyl]-5-[(Z)-(5-fluoro-2-oxo-1,2-dihydro-3H-indol-3-ylidene)methyl]-2,4-dimethyl-1H-pyrrole-3-carboxamide (1:1)], at PDCL3, the “identified as PDCL3 inhibitor / specifically targeting PDCL3” value was “identified as specifically targeting PDCL3”.

Turning to `O=C(/C=C/c1ccc(O)cc1)c1ccc(O)cc1O` [Isoliquiritgenin, (E)-1-(2,4-dihydroxyphenyl)-3-(4-hydroxyphenyl)prop-2-en-1-one], the “identified as PDCL3 inhibitor / specifically targeting PDCL3” value at PDCL3 was “identified as specifically targeting PDCL3”.

`N#C/C(=C\c1ccc(-c2cc(Cl)ccc2Cl)o1)C(=O)Nc1cccc2ncccc12` [AGK2, (2E)-2-Cyano-3-[5-(2,5-dichlorophenyl)-2-furyl]-N-(5-quinolinyl)acrylamide]: at PDCL3, the “identified as PDCL3 inhibitor / specifically targeting PDCL3” value is given as “identified as specifically targeting PDCL3”.

Regarding `COC(=O)[C@H]1[C@H]2C[C@@H]3c4[nH]c5cc(OC)ccc5c4CCN3C[C@H]2C[C@@H](OC(=O)c2cc(OC)c(OC)c(OC)c2)[C@@H]1OC` [Reserpine, Methyl (3β,16β,17α,18β,20α)-11,17-dimethoxy-18-[(3,4,5-trimethoxybenzoyl)oxy]yohimban-16-carboxylate], at PDCL3, the “identified as PDCL3 inhibitor / specifically targeting PDCL3” value was “identified as specifically targeting PDCL3”.

Take `N#CC(C#N)=C(N)/C(C#N)=C/c1ccc(O)cc1` [Tyrphostin AG 112, (3Z)-2-Amino-4-(4-hydroxyphenyl)-1,3-butadiene-1,1,3-tricarbonitrile]: the “identified as PDCL3 inhibitor / specifically targeting PDCL3” value at PDCL3 was “identified as specifically targeting PDCL3”.

Regarding `O=C1NC(=O)c2cc(Nc3ccccc3)c(Nc3ccccc3)cc21` [DAPH, 5,6-Dianilino-1H-isoindole-1,3(2H)-dione], the “identified as PDCL3 inhibitor / specifically targeting PDCL3” value on PDCL3 is “identified as specifically targeting PDCL3”.

Turning to `N#CC(C#N)=Cc1ccc(O)c(O)c1` [Tyrphostin 23, (3,4-Dihydroxybenzylidene)malononitrile], the “identified as PDCL3 inhibitor / specifically targeting PDCL3” value on PDCL3 is given as “identified as specifically targeting PDCL3”.

As for `N#CC(C#N)=C(N)/C(C#N)=C/c1cc(O)c(O)c(O)c1` [Tyrphostin 51, (3Z)-2-Amino-4-(3,4,5-trihydroxyphenyl)-1,3-butadiene-1,1,3-tricarbonitrile], the “identified as PDCL3 inhibitor / specifically targeting PDCL3” value on PDCL3 is given as “identified as specifically targeting PDCL3”.

In the case of `CC(C)C[C@@H](C=O)NC(=O)[C@H](CC(C)C)NC(=O)[C@H](CC(C)C)NC(=O)OCc1ccccc1` [MG132] (Cbz-Leu-Leu-Leu-aldehyde), in the assay with VEGFR-2 [2], the “yield of in vitro translated VEGFR-2” value is “this effect of PDCL3 was further augmented”.

Regarding `COc1ccccc1N1CCN(CCCNc2cc(=O)n(C)c(=O)n2C)CC1` [Urapidil Hydrochloride, 6-({3-[4-(2-Methoxyphenyl)-1-piperazinyl]propyl}amino)-1,3-dimethyl-2,4(1H,3H)-pyrimidinedione], at PDCL3, the “identified as PDCL3 inhibitor / specifically targeting PDCL3” value is “identified as specifically targeting PDCL3”.

For `CN(C)c1cc2c(Nc3ccc4c(cnn4Cc4ccccc4)c3)ncnc2cn1` [GW2974, N4-(1-Benzyl-1H-indazol-5-yl)-N6,N6-dimethylpyrido[3,4-d]pyrimidine-4,6-diamine], at PDCL3, the “identified as PDCL3 inhibitor / specifically targeting PDCL3” value is “identified as specifically targeting PDCL3”.

Take `CC12NC(Cc3ccccc31)c1ccccc12.O=C(O)/C=C/C(=O)O` (single isomer, unassigned; (-)) [(−)-MK-801 hydrogen maleate, 1-Methyl-16-azatetracyclo[7.6.1.02,7.010,15]hexadeca-2,4,6,10,12,14-hexaene (2E)-2-butenedioate (1:1)]: the “identified as PDCL3 inhibitor / specifically targeting PDCL3” value at PDCL3 is on record as “identified as specifically targeting PDCL3”.

Take `CNC1(C)C2CCC(C2)C1(C)C.Cl` (centres unmarked) [Mecamylamine hydrochloride, N,2,3,3-Tetramethylbicyclo[2.2.1]heptan-2-amine hydrochloride (1:1)]: on PDCL3, the “identified as PDCL3 inhibitor / specifically targeting PDCL3” value is listed as “identified as specifically targeting PDCL3”.
